Results from patent US8716437B2 (priority 2007, dated 2014).

Assays:
BK = biological target: T1, BK (Mus musculus, UniProt Q08460); experiment: Two electrode voltage clamp, Xenopus oocytes, BK; format: cell-based
T1 construct: expressed in transfected cells; host or cells: Xenopus laevis oocytes (cRNA injection)
Protocol: (§1) To examine the effect of mokatoxin-1 on activity of potassium ion channels, cDNA encoding Rattus Kv1.1 (NCBI accession number NM_173095), Rattus Kv1.2 (NM_012970), Homo Kv1.3 (NM_002232), or Mus BK (NM_010610) were subcloned into oocyte expression vectors based on PCR3.1 and pGEM. cRNA synthesis was performed with T7 polymerase and the mMessageMachine Kit (Ambion, Austin, Tex.) according to manufacturers instructions. cRNA concentrations were determined spectroscopically. For two electrode voltage clamp recordings oocytes were extracted from Xenopus laevis and defoliculated with Collagenase Type 2 (Worthington, Lakewood, N.J.). Oocytes were maintained in ND91 solution containing 2 mM KCl, 91 mM NaCl, 1 mM MgCl2, 1.8 mM CaCl2, and 5 mM HEPES, pH 7.5, supplemented with 1% Penicillin/Streptomycin (Cellgro, Hemdon, Va.) and 0.1% Gentamycin sulfate (Gibco, Grand Island, N.Y.)) at 16° C. Stage V and VI oocytes were injected with 8 pg to 4 ng cRNA, and currents recorded 1 to 4 days later.
(§2) For dose-response measurements of toxin block of Kv1.1, Kv1,2, or Kv1.3 peak currents were recorded during a 500 ms step to 0 mV from a holding voltage of −100 mV, followed by a 200 ms step to −135 mV every 30 s. To determine the kinetics of toxin block oocytes were held at −100 mV and stepped to the test voltage of 0 mV for 100 ms followed by a 200 ms duration step to −135 mV every 2 s. BK currents were recorded during a 50 ms step to +60 mV from a holding voltage of −80 mV, followed by a 40 ms step to −100 mV every 3 s. The perfusion solution contained 2 mM KCl, 96 mM NaCl, 1 mM MgCl2, 1.8 mM CaCl2, 5 mM HEPES, pH 7.5 and 0.1% fatty acid ultra-free BSA fraction V (Roche Diagnostics Corporation, Indianapolis, Ind.). Data acquisition and processing was performed with an oocyte clamp OC-725B (Warner Instruments Corporation, Hamden, Conn.), pCLAMP (Axon, Sunnyvale, Calif.), IGOR Pro (WaveMetrics, Lake Oswego, Oreg.), and Origin6.1 (OriginLab Corporation, Northampton, Mass.) softwares. The equilibrium dissociation rates (KD) for block of Kv1.1, Kv1.2, and Kv1.3 by mokatoxin-1 were determined by fitting the dose-response data and kon and koff were calculated as described by Goldstein and Miller, 1993 (Biophys J. 1993 65 (4):1613-1619).

KcsA-Kv1.3 = experiment: Phage panning on purified immobilized KcsA-Kv1.3 (KcsA-1.3); format: binding; conditions: mixture of five ligands
Kv1.1 = biological target: T2, Kv1.1 (Rattus norvegicus, UniProt P10499); experiment: Two electrode voltage clamp, Xenopus oocytes, Kv1.1; format: cell-based
T2 construct: expressed in transfected cells; host or cells: Xenopus laevis oocytes (cRNA injection)
T2 sequence (P10499 whole entry): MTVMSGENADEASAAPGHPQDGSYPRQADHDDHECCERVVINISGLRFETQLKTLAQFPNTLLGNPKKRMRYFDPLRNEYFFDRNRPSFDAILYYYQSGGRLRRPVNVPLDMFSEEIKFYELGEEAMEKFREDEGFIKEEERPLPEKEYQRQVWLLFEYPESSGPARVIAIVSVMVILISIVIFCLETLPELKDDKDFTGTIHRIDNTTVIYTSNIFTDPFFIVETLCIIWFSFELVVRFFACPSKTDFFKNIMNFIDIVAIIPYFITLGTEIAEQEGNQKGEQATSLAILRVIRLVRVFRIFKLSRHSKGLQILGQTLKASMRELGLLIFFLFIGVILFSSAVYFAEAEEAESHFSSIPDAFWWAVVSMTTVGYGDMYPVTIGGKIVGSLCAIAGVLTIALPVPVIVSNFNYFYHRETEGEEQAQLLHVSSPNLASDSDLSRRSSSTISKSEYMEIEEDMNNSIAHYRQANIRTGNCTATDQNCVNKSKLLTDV
Protocol: as §1, §2

Kv1.3 = Kv1.3 (Homo sapiens, UniProt P22001); experiment: Phage panning on live cells (HEK, COS) expressing Kv1.3 channels; format: binding; set-up: expressed in transfected cells; host or cells: HEK (HEK293) and COS cells; conditions: for enrichment of KTX, Kv1.3 transfected vs. vector cells: 5×10^11 phagemids; for OUTPUT KTX (%): mixture of KTX and nonspecific phages, one round of panning
Kv1.3, sequence (P22001 whole entry): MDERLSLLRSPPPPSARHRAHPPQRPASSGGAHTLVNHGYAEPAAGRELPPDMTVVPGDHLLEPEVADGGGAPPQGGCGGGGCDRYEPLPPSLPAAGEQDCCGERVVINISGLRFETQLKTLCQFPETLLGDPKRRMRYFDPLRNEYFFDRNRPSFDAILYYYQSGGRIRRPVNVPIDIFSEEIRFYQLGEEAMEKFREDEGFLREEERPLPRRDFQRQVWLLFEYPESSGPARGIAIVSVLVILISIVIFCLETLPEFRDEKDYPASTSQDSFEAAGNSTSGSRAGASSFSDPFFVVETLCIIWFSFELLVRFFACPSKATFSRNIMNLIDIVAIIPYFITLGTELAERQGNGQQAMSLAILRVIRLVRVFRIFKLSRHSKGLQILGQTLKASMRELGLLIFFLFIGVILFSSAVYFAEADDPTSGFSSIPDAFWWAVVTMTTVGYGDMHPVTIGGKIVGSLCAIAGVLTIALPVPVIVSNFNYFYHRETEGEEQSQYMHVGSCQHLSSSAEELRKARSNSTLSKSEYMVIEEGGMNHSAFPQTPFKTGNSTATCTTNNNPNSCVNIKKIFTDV
Description: In another example, receptors may be expressed in cells. For example, cells may be stably or transiently transfected with one or more receptors can be utilized as expressed in native tissues (Clackson and Lowman, Phage display. Oxford University Press, 2004; Barbas et al., Phage display. A laboratory manual. Cold Spring Harbor Laboratory Press, 2001; Sambrook et al., Molecular Cloning: A Laboratory Manual. Vols 1-3. Cold Spring Harbor Laboratory Press, 1989). In one example, HEK (mammalian human embryonic kidney) and COS cells expressing wild-type Kv1.3 or Kv1.3-PDZ domain chimera were employed, the latter target allowing a “double” panning (e.g., as a control or to enhance binding affinity) using phages expressing kaliotoxin-1 and/or PDZ-binder domain.
Panning may be performed by the binding of ligands to the receptors, followed by washes and ligand recovery. In one example, panning is performed according to standard methods of phage display (Clackson and Lowman, Phage display. Oxford University Press, 2004; Barbas et al., Phage display. A laboratory manual. Cold Spring Harbor Laboratory Press, 2001). Panning may be repeated until the desired enrichment is achieved. In addition, libraries can be pre-depleted on surfaces or cells that contain no receptors or on a receptor where the putative ligand receptor domain may be directly or indirectly altered. Additionally, any and all conditions of panning may be varied, altered or changed to achieve optimal results, such as the isolation of a specific ligand. Panning variations include, but are not limited to, the presence of competing ligand(s), presence of excess target(s), length and temperature of binding, pre-absorption of the ligand library on one or more different receptor(s) or cells or surfaces, composition of binding solution (e.g., ionic strength), stringency of washing, and recovery procedures. Phages recovered from panning may be processed for further rounds of panning, functional analysis, and/or sequencing/genotyping to deduce the resulting ligands' amino acid sequence or biological properties (Clackson and Lowman, Phage display. Oxford University Press, 2004; Barbas et al., Phage display. A laboratory manual. Cold Spring Harbor Laboratory Press, 2001).
5×10^11 phagemids were added to the cell cultures in “B.”
A library of KTX-like ligands, with a calculated diversity of greater than 11,000, was created de novo. The library comprised approximately 8% KTX-like ligands and 92% non-KTX-like ligands. The library of ligands was screened on Kv1.3 receptors expressed in HEK and COS cells.
Transfection efficiency was monitored with cotransfection of gene encoding for the green fluorescence protein (GFP) and observing the fluorescence after 1-2 days following transfection.
KTX and mokatoxin-1 are Kv1.3 specific scorpion toxins. […] Following incubation of the cells with the phages, cells were subjected to wash to remove the unbound/weakly bound phages. The remaining bound phages were eluted from the cells and transformed into XL1 E. coli, and plated onto LB plates with antibiotic selecting for the phagemids.

[1] = HEK cells, kaliotoxin-1-phage 1 out of 10^10 phage

T1 sequence (Q08460 whole entry): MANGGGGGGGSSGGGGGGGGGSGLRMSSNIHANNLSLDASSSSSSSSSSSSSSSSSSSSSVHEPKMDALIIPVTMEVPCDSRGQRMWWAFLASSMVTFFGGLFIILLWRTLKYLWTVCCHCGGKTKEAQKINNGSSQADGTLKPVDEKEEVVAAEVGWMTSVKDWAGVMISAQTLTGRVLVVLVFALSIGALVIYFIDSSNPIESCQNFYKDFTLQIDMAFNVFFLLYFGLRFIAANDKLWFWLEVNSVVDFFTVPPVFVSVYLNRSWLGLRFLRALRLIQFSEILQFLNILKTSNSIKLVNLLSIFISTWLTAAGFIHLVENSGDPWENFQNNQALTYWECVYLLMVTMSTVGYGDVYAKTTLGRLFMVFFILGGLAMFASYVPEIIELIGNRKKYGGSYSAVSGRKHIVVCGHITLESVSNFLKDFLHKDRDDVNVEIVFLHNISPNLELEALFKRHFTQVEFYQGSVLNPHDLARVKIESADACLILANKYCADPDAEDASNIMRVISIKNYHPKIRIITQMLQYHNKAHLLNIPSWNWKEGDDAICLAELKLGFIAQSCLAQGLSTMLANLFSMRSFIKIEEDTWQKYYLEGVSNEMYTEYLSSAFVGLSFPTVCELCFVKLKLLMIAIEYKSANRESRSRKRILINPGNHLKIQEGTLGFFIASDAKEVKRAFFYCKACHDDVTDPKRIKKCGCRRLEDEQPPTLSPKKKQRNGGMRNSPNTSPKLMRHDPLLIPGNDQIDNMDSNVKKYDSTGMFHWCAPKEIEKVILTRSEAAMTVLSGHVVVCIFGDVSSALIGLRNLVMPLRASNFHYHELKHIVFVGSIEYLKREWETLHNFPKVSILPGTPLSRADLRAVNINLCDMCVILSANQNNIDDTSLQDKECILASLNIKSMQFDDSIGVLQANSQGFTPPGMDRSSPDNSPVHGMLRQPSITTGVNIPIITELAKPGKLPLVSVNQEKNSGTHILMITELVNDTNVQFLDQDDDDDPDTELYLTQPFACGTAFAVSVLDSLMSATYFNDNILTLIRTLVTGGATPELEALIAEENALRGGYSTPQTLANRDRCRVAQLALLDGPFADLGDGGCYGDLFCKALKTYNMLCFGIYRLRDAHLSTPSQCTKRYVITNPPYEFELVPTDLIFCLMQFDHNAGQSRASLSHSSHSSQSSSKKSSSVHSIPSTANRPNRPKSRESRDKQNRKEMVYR

CC[C@H](C)[C@H](NC(=O)[C@H](CCC(=O)O)NC(=O)[C@@H](NC(=O)CN)C(C)C)C(=O)N[C@@H](CC(N)=O)C(=O)N[C@H](C(=O)N[C@@H](CCCCN)C(=O)N[C@H]1CSSC[C@@H]2NC(=O)[C@H](CCCCN)NC(=O)CNC(=O)[C@H](Cc3ccccc3)NC(=O)[C@H](CCCNC(=N)N)NC(=O)[C@H](CCSC)NC(=O)CNC(=O)[C@H](C)NC(=O)[C@H](CC(=O)O)NC(=O)[C@H](CCCCN)NC(=O)[C@@H]3CSSC[C@@H](C(=O)N[C@H](C(=O)N4CCC[C@H]4C(=O)N[C@@H](CCCCN)C(=O)O)[C@@H](C)O)NC(=O)[C@H](Cc4c[nH]cn4)NC(=O)[C@H](CSSC[C@H](NC(=O)[C@H](CCC(N)=O)NC(=O)[C@@H]4CCCN4C(=O)[C@H](CO)NC(=O)CNC(=O)[C@H](CO)NC1=O)C(=O)N[C@@H](CC(C)C)C(=O)N[C@@H](CCCCN)C(=O)N1CCC[C@H]1C(=O)N3)NC(=O)[C@H](CCCCN)NC(=O)[C@H](CCCNC(=N)N)NC(=O)[C@H](CC(N)=O)NC(=O)[C@H](CCSC)NC2=O)C(C)C [KTX, kaliotoxin-1]
IC50 (BK): ~5 nM | Koff [s]^−1 (BK; mBK): 0.0211 ± 0.0008 [s]^−1 | Kon [M · s]^−1 (BK; mBK): 21 · 10^3 ± 4 · 10^3 [M · s]^−1 | enrichment after one round of panning (KcsA-Kv1.3): 3.6 fold | Output (% Ligands) KcsA-Kv.13 (n = 20) (KcsA-Kv1.3; one round of panning): 100% | IC50 (Kv1.1): 0.1 nM | Koff [s]^−1 (Kv1.1; rKv1.1): 0.009 ± 0.002 [s]^−1 | Kon [M · s]^−1 (Kv1.1; rKv1.1): 30 · 10^6 ± 16 · 10^6 [M · s]^−1 | enrichment of KTX, Kv1.3 transfected vs. vector cells (Kv1.3; COS cells): ~10 fold | enrichment of KTX, Kv1.3 transfected vs. vector cells (Kv1.3; HEK cells): ~20 fold | 2nd round (n = 20) % (Kv1.3; [1]): 0% | 3rd round (n = 12) % (Kv1.3; [1]): 58% | OUTPUT KTX (%) (Kv1.3; input ratio 1/99, actual 5/95 (n = 20)): 26 (n = 20) % | OUTPUT KTX (%) (Kv1.3; input ratio 10/90, actual 0/100 (n = 10)): 22 (n = 18) % | OUTPUT KTX (%) (Kv1.3; input ratio 10/90, actual 7/93 (n = 30)): 30 (n = 30) %
